Data reported in patent publication US7390806B2, “Antibiotics containing borinic acid complexes and methods of use” (Anacor Pharmaceuticals, Inc., priority 2002, dated 2008).
Values after ≈ are worked out from the molar mass of the structure shown. Where two headings read alike, the source gives them in different places.

Key:
[1] = system: S. epidermidis ATCC 12228; experiment: MIC determination, S. epidermidis ATCC 12228; type: cell-based, Staphylococcus epidermidis; conditions: for MIC: Staphylococcus epidermidis, read-out: MIC S. epidermidis ATCC 12228
S. pneumoniae ATCC 6301 = experiment: MIC determination, S. pneumoniae ATCC 6301; type: cell-based, Streptococcus pneumoniae; conditions: for MIC S. pneumonia ATCC 6301: Table 2; for MIC S. pneumoniae ATCC 6301: Table 1
H. influenzae ATCC 49766 = experiment: MIC determination, H. influenzae ATCC 49766; type: cell-based, Haemophilus influenzae; conditions: Table 2; for MIC: Haemophilus influenzae, ATCC49766
S. aureus ATCC 29213 = experiment: MIC determination, S. aureus ATCC 29213; type: cell-based, Staphylococcus aureus; conditions: for MIC: Staphylococcus aureus, read-out: MIC S. aureus ATCC 29213
E. faecium CT-26 = experiment: MIC determination, E. faecium CT-26; type: cell-based, Enterococcus faecium; conditions: for MIC: Enterococcus faecium, CT26, Table 2, read-out: MIC E. faecium CT-26
E. faecalis ATCC 29212 = experiment: MIC determination, E. faecalis ATCC 29212; type: cell-based, Enterococcus faecalis; conditions: for MIC: Enterococcus faecalis, read-out: MIC E. faecalis ATCC 29212
[2] = system: M. catarrhalis ATCC 25238; experiment: MIC determination, M. catarrhalis ATCC 25238; type: cell-based; conditions: Table 1

SMILES	MIC S. epidermidis ATCC 12228 ([1]; Table 2) [micrograms per ml]	MIC H. influenzae ATCC 49766 (H. influenzae ATCC 49766) [micrograms per ml]	MIC S. aureus ATCC 29213 (S. aureus ATCC 29213; Table 2) [micrograms per ml]	MIC E. faecium CT-26 (E. faecium CT-26; Table 2) [micrograms per ml]	MIC E. faecalis ATCC 29212 (E. faecalis ATCC 29212; Table 2) [micrograms per ml]	MIC M. catarrhalis ATCC 25238 [2] [micrograms per ml]	MIC S. epidermidis ATCC 12228 ([1]; Table 1) [micrograms per ml]	MIC S. pneumoniae ATCC 6301 (S. pneumoniae ATCC 6301) [micrograms per ml]	MIC S. aureus ATCC 29213 (S. aureus ATCC 29213; Table 1) [micrograms per ml]	MIC E. faecium CT-26 (E. faecium CT-26; Table 1) [micrograms per ml]	MIC E. faecalis ATCC 29212 (E. faecalis ATCC 29212; Table 1) [micrograms per ml]	also measured
Cc1ccc([B-]2(c3ccc(C)c(Cl)c3)OC(=O)c3c(OCCCC(=O)O)ccc[n+]32)cc1Cl [Compound 109]	4	16	1	16	32	–	–	–	–	–	–	MIC S. pneumonia ATCC 6301 (S. pneumoniae ATCC 6301): 4 micrograms per ml
CC[C@H]1OC(=O)[C@H](C)[C@@H](O[C@H]2C[C@@](C)(OC)[C@@H](O)[C@H](C)O2)[C@H](C)[C@@H](O[C@@H]2O[C@H](C)C[C@H](N(C)C)[C@H]2O)[C@](C)(O)C[C@@H](C)C(=O)[C@H](C)[C@@H](O)[C@]1(C)O [Erythromycin, reference compound]	–	–	–	–	–	–	–	–	–	–	–	MIC ([1]; ATCC12228, Table 1): 0.5 µg/mL (≈ 0.681 µM); MIC ([1]; ATCC12228, Table 2): 0.5 µg/mL (≈ 0.681 µM); MIC (H. influenzae ATCC 49766): 4 µg/mL (≈ 5.45 µM); MIC (S. aureus ATCC 29213; ATCC29213, Table 1): 0.5 µg/mL (≈ 0.681 µM); MIC (S. aureus ATCC 29213; ATCC29213, Table 2): 0.5 µg/mL (≈ 0.681 µM); MIC (E. faecalis ATCC 29212; ATCC29212, Table 1): 2 µg/mL (≈ 2.73 µM); MIC (E. faecalis ATCC 29212; ATCC29212, Table 2): 2 µg/mL (≈ 2.73 µM)
O=C(O)c1cccnc1C(=O)O [Compound 110, 3-carboxypicolinic acid]	–	–	–	–	–	–	–	–	–	–	–	MIC ([1]; ATCC12228, Table 2): 4 µg/mL (≈ 23.9 µM); MIC (H. influenzae ATCC 49766): 8 µg/mL (≈ 47.9 µM); MIC (S. aureus ATCC 29213; ATCC29213, Table 2): 0.125 µg/mL (≈ 0.748 µM); MIC (E. faecium CT-26): 8 µg/mL (≈ 47.9 µM); MIC (E. faecalis ATCC 29212; ATCC29212, Table 2): 8 µg/mL (≈ 47.9 µM)
CC(=O)Oc1ccc[n+]2c1C(=O)O[B-]2(c1ccc(C)c(Cl)c1)c1ccc(C)c(Cl)c1 [Compound 119]	1	64	2	2	2	–	–	–	–	–	–	–
O=C(O)c1ncccc1O [Compound 115, 3-hydroxypicolinic acid]	2	64	2	16	8	–	–	–	–	–	–	MIC S. pneumonia ATCC 6301 (S. pneumoniae ATCC 6301): 1 micrograms per ml
O=C(O)c1ncccc1O [Compound 113, 3-hydroxypicolinic acid]	1	64	0.5	64	2	–	–	–	–	–	–	–
O=C(O)c1ncccc1O [Compound 114, 3-hydroxypicolinic acid]	8	16	0.125	64	64	–	–	–	–	–	–	–
O=C(O)Cc1ccccn1 [Compound 106, 2-pyridylacetic acid]	–	–	–	–	–	–	–	–	–	–	–	MIC ([1]; ATCC12228, Table 2): 4 µg/mL (≈ 29.2 µM); MIC (H. influenzae ATCC 49766): 64 µg/mL (≈ 467 µM); MIC (S. aureus ATCC 29213; ATCC29213, Table 2): 0.5 µg/mL (≈ 3.65 µM); MIC (E. faecium CT-26): 64 µg/mL (≈ 467 µM); MIC (E. faecalis ATCC 29212; ATCC29212, Table 2): 64 µg/mL (≈ 467 µM)
C[C@@H](O)[C@H]1C(=O)N2C(C(=O)O)=C(S[C@@H]3CN[C@H](C(=O)N(C)C)C3)[C@H](C)[C@H]12 [Meropenem, reference compound]	–	–	–	–	–	–	–	–	–	–	–	MIC ([1]; ATCC12228, Table 1): 0.06 µg/mL (≈ 0.156 µM); MIC ([1]; ATCC12228, Table 2): 0.06 µg/mL (≈ 0.156 µM); MIC (H. influenzae ATCC 49766): 0.06 µg/mL (≈ 0.156 µM); MIC (S. aureus ATCC 29213; ATCC29213, Table 1): 0.06 µg/mL (≈ 0.156 µM); MIC (S. aureus ATCC 29213; ATCC29213, Table 2): 0.06 µg/mL (≈ 0.156 µM); MIC (E. faecalis ATCC 29212; ATCC29212, Table 1): 2 µg/mL (≈ 5.22 µM); MIC (E. faecalis ATCC 29212; ATCC29212, Table 2): 2 µg/mL (≈ 5.22 µM)
O=C(O)c1ncccc1O [Compound 112, 3-hydroxypicolinic acid]	2	64	4	8	4	–	–	–	–	–	–	–
Cc1ccc(B(OC(=O)c2ncccc2O)c2ccc(C)c(Cl)c2)cc1Cl [Compound 111, Bis(3-Chloro-4-methylphenyl)borinic acid 3-hydroxypicolinate ester]	1	64	2	2	2	–	–	–	–	–	–	–
O=C(O)c1ncccc1OCCN1CCOCC1 [Compound 108]	–	–	–	–	–	–	–	–	–	–	–	MIC ([1]; ATCC12228, Table 2): 4 µg/mL (≈ 15.9 µM); MIC (H. influenzae ATCC 49766): 64 µg/mL (≈ 254 µM); MIC (S. aureus ATCC 29213; ATCC29213, Table 2): 0.25 µg/mL (≈ 0.991 µM); MIC (E. faecium CT-26): 2 µg/mL (≈ 7.93 µM); MIC (E. faecalis ATCC 29212; ATCC29212, Table 2): 4 µg/mL (≈ 15.9 µM)
O=C(O)c1ncccc1OCCO [Compound 107]	–	–	–	–	–	–	–	–	–	–	–	MIC ([1]; ATCC12228, Table 2): 4 µg/mL (≈ 21.8 µM); MIC (H. influenzae ATCC 49766): 32 µg/mL (≈ 175 µM); MIC (S. aureus ATCC 29213; ATCC29213, Table 2): 0.125 µg/mL (≈ 0.682 µM); MIC (E. faecium CT-26): 8 µg/mL (≈ 43.7 µM); MIC (E. faecalis ATCC 29212; ATCC29212, Table 2): 16 µg/mL (≈ 87.4 µM)
C#CB(Oc1cccc2cccnc12)c1ccccc1Cl [Compound 43, (2-Chlorophenyl)ethynylborinic acid 8-Hydroxyquinoline ester]	–	–	–	–	–	1	1	1	1	2	8	–
Oc1cccc2cccnc12 [Compound 81, 8-hydroxyquinoline]	–	–	–	–	–	2	1	2	2	4	8	–
Oc1ccc(F)c2cccnc12 [Compound 57]	–	–	–	–	–	1	2	4	2	4	16	–
Oc1cccc2cccnc12 [Compound 97, 8-hydroxyquinoline]	–	–	–	–	–	1	1	1	2	2	8	–
Oc1cccc2cccnc12 [Compound 92, 8-hydroxyquinoline]	–	–	–	–	–	1	1	2	2	4	8	–
Oc1cccc2cccnc12 [Compound 54, 8-hydroxyquinoline]	–	–	–	–	–	1	1	2	2	4	8	–
Oc1cccc2cccnc12 [Compound 48, 8-hydroxyquinoline]	–	–	–	–	–	2	1	1	1	2	8	–
Oc1cccc2cccnc12 [Compound 47, 8-hydroxyquinoline]	–	–	–	–	–	1	1	1	1	2	8	–
